Results on 24 compounds are retold here after US10233180B2, “Substituted nitrogen-containing heterocyclic derivatives, pharmaceutical compositions comprising the same and applications of antitumor thereof” (ZHEJIANG UNIVERSITY, priority 2014, dated 2019).

Assay [1] has as its system Human ovarian cancer cell strain OVCAR-8. Put plainly: MTT assay, inhibition of tumor cell growth in vitro, 72 h. In kind it is cell-based. The following applies: Homo sapiens, OVCAR-8, MTT, read-out: Antitumor proliferative activities of tumor cell (IC50, μM) OVCAR-8. The method in brief: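 OVCAR8 cells in RPMI 1640 plus FBS were seeded at 4000 cells/well and exposed for 72 h at 37 °C to compound at 50, 10, 2, 0.4 and 0.08 μM final, with 1% DMSO as blank. Inhibition was calculated from OD relative to control, and IC50 was derived by the Bliss method.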

For a further assay, the target named is T1, Akt1 (Homo sapiens, UniProt P31749).
T1 construct: purchased 32-021
T1 sequence (P31749 whole entry): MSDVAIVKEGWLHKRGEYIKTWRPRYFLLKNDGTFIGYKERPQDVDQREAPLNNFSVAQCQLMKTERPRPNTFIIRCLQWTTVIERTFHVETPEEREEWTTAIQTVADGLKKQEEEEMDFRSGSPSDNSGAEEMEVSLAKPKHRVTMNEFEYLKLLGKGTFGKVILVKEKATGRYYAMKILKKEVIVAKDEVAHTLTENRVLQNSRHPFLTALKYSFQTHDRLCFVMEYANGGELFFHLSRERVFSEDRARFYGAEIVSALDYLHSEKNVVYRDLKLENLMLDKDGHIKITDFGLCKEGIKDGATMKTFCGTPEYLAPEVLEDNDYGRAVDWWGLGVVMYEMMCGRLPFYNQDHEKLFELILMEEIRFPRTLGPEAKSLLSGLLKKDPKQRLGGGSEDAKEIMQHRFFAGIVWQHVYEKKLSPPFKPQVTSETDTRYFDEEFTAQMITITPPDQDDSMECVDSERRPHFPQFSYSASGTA
The assay is described as follows: AKT1/PKBα KinEASE FP Fluorescein Green Assay (fluorescence polarization kinase kit). In kind it is biochemical. The following applies: 1 h reaction, read-out: Inhibitory activities against Akt1 (IC50). The method, boiled down:
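FP competition kinase assay: compounds (50 μM stock) with STK Substrate 3 and ATP, 1 h reaction at room temperature; stopped with stop/antibody mix, 4 h at room temperature, then polarization read. Inhibition derived from polarization values; IC50 calculated; triplicate wells.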

Assay [2] has as its system human colon cancer cell strain HCT-116. Put plainly: MTT assay, inhibition of tumor cell growth in vitro, 72 h. In kind it is cell-based. As to conditions: Homo sapiens, HCT-116, MTT, read-out: Antitumor proliferative activities of tumor cell (IC50, μM) HCT-116 (converted). The method in brief:
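Cells in RPMI 1640 with FBS, 4000 cells/well, exposed 72 h at 37 °C, 5% CO2 to final 50, 10, 2, 0.4 and 0.08 μM; 1% DMSO blank. MTT OD gives % inhibition versus control; IC50 derived by Bliss method.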

In the case of `Cn1ncc(Cl)c1-c1cc(C(=O)N[C@@H]2CNC(CCNCC(O)CO)C[C@H]2c2ccc(Cl)c(Cl)c2)oc1Cl` (stereo partly drawn) [Compound 123, 5-chloro-4-(4-chloro-1-methyl-1H-pyrazol-5-yl)-N-((3S,4S)-4-(3,4-dichlorophenyl)-6-(2-((2,3-dihydroxypropyl)amido)ethyl)piperidin-3-yl)furan-2-formamide], the IC50 in assay [1] was 0.09 µM; on Akt1 it was 0.1 nM; in assay [2], 0.07 µM.

For `Cn1ncc(Cl)c1-c1sc(C(=O)N[C@@H]2CNCC[C@H]2c2cccc(F)c2)cc1Cl` [Compound 139, 4-chloro-5-(4-chloro-1-methyl-1H-pyrazol-5-yl)-N-((3S, 4S)-4-(3-fluorophenyl)piperidin-3-yl)thiophene-2-formamide], the IC50 is 1.44 µM in assay [1], 0.7 nM at Akt1 and 2.51 µM in assay [2].

Consider `Cn1ncc(Br)c1-c1coc(C(=O)N[C@H]2CNC[C@@H]2c2ccc(C(F)(F)F)cc2)c1` (racemic) [Compound 67, 4-(4-bromo-1-methyl-1H-pyrazol-5-yl)-N-(3,4-trans-4-(4-trifluoromethylphenyl)pyrrolidin-3-yl)furan-2-formamide], for which the IC50 in assay [1] was 10.6 µM; at Akt1, 272 nM; in assay [2], 20.4 µM.

As for `Cn1ncc(Cl)c1-c1cc(C(=O)N[C@H]2CNCC[C@@H]2c2ccc(C(F)(F)F)cc2)oc1Cl` (racemic) [Compound 30, 5-chloro-4-(4-chloro-1-methyl-1H-pyrazol-5-yl)-N-(3,4-trans-4-(4-trifluoromethylphenyl)piperidin-3-yl)furan-2-formamide], the IC50 in assay [1] is 1.01 µM; on Akt1, 92 nM; in assay [2] it was 21.6 µM.

In the case of `CNS(=O)(=O)CC1C[C@@H](c2ccc(F)c(F)c2)[C@H](NC(=O)c2ccc(-c3c(Cl)cnn3C)c(F)c2)CN1` (stereo partly drawn) [Compound 101], the IC50 was 0.43 µM in assay [1], 7 nM on Akt1 and 2.11 µM in assay [2].

Regarding `CCc1cnn(C)c1-c1cc(F)c(C(=O)N[C@@H]2CNCC[C@H]2c2ccc(Cl)c(C(F)(F)F)c2)c(F)c1` [Compound 75, N-((3S,4S)-4-(4-chloro-3-(trifluoromethyl)phenyl)piperidin-3-yl)-4-(4-ethyl-1-methyl-1H-pyrazol-5-yl)-2,6-difluorobenzamide], the figures for the IC50 (in assay [1]; on Akt1; in assay [2]) were 2.19 µM, 13 nM and 0.99 µM, respectively.

As to `Cn1ncc(Cl)c1-c1ccc(C(=O)N[C@@H]2CNC(CCO)C[C@H]2c2ccc(F)c(F)c2)cc1` (stereo partly drawn) [Compound 100], the IC50 in assay [1] was 1.12 µM; at Akt1 it was 9 nM; in assay [2], 0.42 µM.

On to `Cn1ncc(Br)c1-c1ccc(C(=O)N[C@@H]2CNCC[C@H]2c2cccc(F)c2)s1` [Compound 147, 5-(4-bromo-1-methyl-1H-pyrazol-5-yl)-N-((3S,4S)-4-(3-fluorophenyl)piperidin-3-yl)thiophene-2-formamide], for which the half-maximal inhibitory concentration (IC50) in assay [1] was 2.43 µM; at Akt1, 9 nM; in assay [2], 0.36 µM.

As for `Cn1nccc1-c1csc(C(=O)N[C@H]2CNCC[C@@H]2c2ccc(Cl)cc2)c1` (racemic) [Compound 32, 4-(1-methyl-1H-pyrazol-5-yl)-N-(3,4-trans-4-(4-chlorphenyl)piperidin-3-yl) thiophene-2-formamide], the IC50 in assay [1] was 1.47 µM; at Akt1, 123 nM; in assay [2] it was 18.1 µM.

Take `CCCC1C[C@@H](c2ccc(Cl)c(Cl)c2)[C@H](NC(=O)c2cc(-c3c(Cl)cnn3C)c(Cl)o2)CN1` (stereo partly drawn) [Compound 130, 5-chloro-4-(4-chloro-1-methyl-1H-pyrazol-5-yl)-N-((3S,4S)-4-(3,4-dichlorophenyl)-6-propylpiperidin-3-yl)furan-2-formamide]: the IC50 in assay [1] was 1.06 µM; at Akt1 it was 0.5 nM; in assay [2] it was 4.1 µM.

Consider `CNC(=O)CC1C[C@@H](c2ccc(F)c(F)c2)[C@H](NC(=O)c2cc(-c3c(Cl)cnn3C)c(Cl)s2)CN1` (stereo partly drawn) [Compound 104, 5-chloro-4-(4-chloro-1-methyl-1H-pyrazol-5-yl)-N-((3S,4S)-4-(3,4-difluorophenyl)-6-(2-(methylamido)-2-oxoethyl)piperidin-3-yl)thiophene-2-formamide], for which the IC50 in assay [1] is 1.71 µM; on Akt1 it was 3 nM; in assay [2], 2.43 µM.

For `Cn1ncc(Cl)c1-c1csc(C(=O)N[C@H]2CNCC[C@@H]2c2ccc(F)c(F)c2)c1` (racemic) [Compound 36, 4-(4-chloro-1-methyl-1H-pyrazol-5-yl)-N-(3,4-trans-4-(3,4-difluorophenyl)piperidin-3-yl)thiophene-2-formamide], the values for the IC50 (in assay [1]; on Akt1; in assay [2]) were 3.38 µM, 105 nM and 3.28 µM, respectively.

Take `Cn1ncc(Cl)c1-c1cc(C(=O)N[C@@H]2CNC(CCO)C[C@H]2c2ccc(Cl)c(Cl)c2)oc1Cl` (stereo partly drawn) [Compound 113, 5-chloro-4-(4-chloro-1-methyl-1H-pyrazol-5-yl)-N-((3S,4S)-4-(3,4-dichlorophenyl)-6-(2-hydroxyethyl)piperidin-3-yl)furan-2-formamide]: the IC50 in assay [1] was 0.14 µM; on Akt1, 3 nM; in assay [2], 1.72 µM.

Regarding `COc1cc(C(=O)N[C@@H]2CNCC[C@H]2c2cccc(F)c2)ccc1-c1c(Cl)cnn1C` [Compound 83, 4-(4-chloro-1-methyl-1H-pyrazol-5-yl)-N-((3S,4S)-4-(3-fluorophenyl)piperidin-3-yl)-3-methoxybenzamide], the concentration for half-maximal inhibition (IC50) in assay [1] was 1.32 µM; on Akt1 it was 10 nM; in assay [2] it was 4.09 µM.

Consider `Cn1ncc(Cl)c1-c1cc(C(=O)N[C@@H]2CNC(CC(N)=O)C[C@H]2c2ccc(Cl)c(Cl)c2)oc1Cl` (stereo partly drawn) [Compound 117, N-((3S,4S)-6-(2-amido-2-oxoethyl)-4-(3,4-dichlorophenyl)piperidin-3-yl)-5-chloro-4-(4-chloro-1-methyl-1H-pyrazol-5-yl)furan-2-formamide], for which the half-maximal inhibitory concentration (IC50) in assay [1] is 0.92 µM; at Akt1 it was 3 nM; in assay [2] it was 4.28 µM.

As to `COCCC1C[C@@H](c2ccc(Cl)c(Cl)c2)[C@H](NC(=O)c2cc(-c3c(Cl)cnn3C)c(Cl)o2)CN1` (stereo partly drawn) [Compound 124, 5-chloro-4-(4-chloro-1-methyl-1H-pyrazol-5-yl)-N-((3S,4S)-4-(3,4-dichlorophenyl)-6-(2-methoxyethyl)piperidin-3-yl)furan-2-formamide], the IC50 in assay [1] was 0.56 µM; at Akt1, 1 nM; in assay [2], 0.34 µM.

For `CNC(=O)CC1C[C@@H](c2ccc(F)c(F)c2)[C@H](NC(=O)c2ccc(-c3c(Cl)cnn3C)cc2)CN1` (stereo partly drawn) [Compound 98], the IC50 was 1.82 µM in assay [1], 4 nM at Akt1 and 0.92 µM in assay [2].

`Cc1cnn(C)c1-c1cnc(C(=O)N[C@H]2CNC[C@@H]2c2ccc(F)c(F)c2)cc1F` (racemic) [Compound 70, 4-fluoro-5-(1,4-dimethyl-1H-pyrazol-5-yl)-N-(3,4-trans-4-(3,4-difluorophenyl)pyrrolidin-3-yl)pyridinyl-2-formamide]: the IC50 in assay [1] is 2.69 µM; on Akt1 it was 87 nM; in assay [2], 10.3 µM.

`CCc1sc(C(=O)N[C@H]2CNCC[C@@H]2c2cnc3ccccc3c2)cc1-c1c(C(C)C)cnn1C` (racemic) [Compound 9]: the results for the IC50 (in assay [1]; at Akt1; in assay [2]) were 0.94 µM, 88 nM and 2.35 µM, respectively.

As to `Cn1ncc(Br)c1-c1coc(C(=O)N[C@H]2CNCC[C@@H]2c2ccc(F)c(F)c2)c1` (racemic) [Compound 28, 4-(4-bromo-1-methyl-1H-pyrazol-5-yl)-N-(3,4-trans-4-(3,4-difluorophenyl)piperidin-3-yl)furan-2-formamide], the IC50 in assay [1] was 3.38 µM; on Akt1, 62 nM; in assay [2] it was 11.8 µM.

Regarding `Cc1[nH]c(C(=O)N[C@H]2CNCC[C@@H]2c2ccncc2)cc1-c1c(Br)cnn1C` (racemic) [Compound 6, 5-methyl-4-(4-bromo-1-methyl-1H-pyrazol-5-yl)-N-(3,4-trans-4-(pyridin-4-yl)piperidin-3-yl)-1H-pyrrole-2-formamide], the IC50 was 3.68 µM in assay [1], 32 nM at Akt1 and 10.8 µM in assay [2].

Turning to `Cn1ncc(Cl)c1-c1ccc(C(=O)N[C@@H]2CNC(CCNS(C)(=O)=O)C[C@H]2c2cccc(F)c2)cc1Cl` (stereo partly drawn) [Compound 103, 3-chloro-4-(4-chloro-1-methyl-1H-pyrazol-5-yl)-N-((3S,4S)-4-(3-fluorophenyl)-6-(2-(methylsulfonamido)ethyl)piperidin-3-yl)benzamide], the half-inhibitory concentration (IC50) in assay [1] was 1.11 µM; on Akt1, 5 nM; in assay [2], 2.81 µM.

As to `Cn1ncc(Cl)c1-c1ccc(C(=O)N[C@@H]2CNCC[C@H]2c2cccc(F)c2)s1` [Compound 138, 5-(4-chloro-1-methyl-1H-pyrazol-5-yl)-N-((3S,4S)-4-(3-fluorophenyl)piperidin-3-yl)thiophene-2-formamide], the figures for the IC50 (in assay [1]; at Akt1; in assay [2]) were 3.01 µM, 1 nM and 0.56 µM, respectively.

For the compound `Cn1ncc(Cl)c1-c1cnc(C(=O)N[C@@H]2CNCC[C@H]2c2cccc(F)c2)cc1Cl` [Compound 92, 4-chloro-5-(4-chloro-1-methyl-1H-pyrazol-5-yl)-N-((3S,4S)-4-(3-fluorophenyl)piperidin-3-yl)picolinamide], the half-inhibitory concentration (IC50) in assay [1] is 1.07 µM; at Akt1, 16 nM; in assay [2], 1.25 µM.
